Data published in PubChem BioAssay AID2060908 (Molecular Pharmacology Branch, DTP, NCI, 2025).
pIC50: −log10 of the molar value.

System: 186277-243-T-J2-PDC complex spheroids, viability
Assay: Anticancer human tumor 186277-243-T-J2-PDC patient-derived colon adenocarcinoma cell line growth inhibition [RAS]
Settings: for pIC50: curve of first compound; for viability, T/C: stronger effect = lower value
Procedure, shortened: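 Multi-cell-type spheroids: tumor cells plus HUVEC endothelial cells and mesenchymal stem cells. RAS-pathway inhibitors were combined with targeted agents, each dosed in half-log steps down from clinical Cmax, or from 10 microM when Cmax was unknown.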

[1] = second compound 0.00316 µM, first compound 0.0316 µM
[2] = second compound 0.00316 µM, first compound 0.1 µM
[3] = second compound 0.00316 µM, first compound 0.316 µM
[4] = second compound 0.00316 µM, first compound 1 µM
[5] = second compound 0.00316 µM, first compound 3.16 µM
[6] = second compound 0.00316 µM, first compound 10 µM
[7] = second compound 0.01 µM, first compound 0.0316 µM
[8] = second compound 0.01 µM, first compound 0.1 µM
[9] = second compound 0.01 µM, first compound 0.316 µM
[10] = second compound 0.01 µM, first compound 1 µM
[11] = second compound 0.01 µM, first compound 3.16 µM
[12] = second compound 0.01 µM, first compound 10 µM
[13] = second compound 0.0316 µM, first compound 0.0316 µM
[14] = second compound 0.0316 µM, first compound 0.1 µM
[15] = second compound 0.0316 µM, first compound 0.316 µM
[16] = second compound 0.0316 µM, first compound 1 µM
[17] = second compound 0.0316 µM, first compound 3.16 µM
[18] = second compound 0.0316 µM, first compound 10 µM
[19] = second compound 0.1 µM, first compound 0.0316 µM
[20] = second compound 0.1 µM, first compound 0.1 µM
[21] = second compound 0.1 µM, first compound 0.316 µM
[22] = second compound 0.1 µM, first compound 1 µM
[23] = second compound 0.1 µM, first compound 3.16 µM
[24] = second compound 0.1 µM, first compound 10 µM
[25] = second compound 0.316 µM, first compound 0.0316 µM
[26] = second compound 0.316 µM, first compound 0.1 µM
[27] = second compound 0.316 µM, first compound 0.316 µM
[28] = second compound 0.316 µM, first compound 1 µM
[29] = second compound 0.316 µM, first compound 3.16 µM
[30] = second compound 0.316 µM, first compound 10 µM
[31] = second compound 1 µM, first compound 0.0316 µM
[32] = second compound 1 µM, first compound 0.1 µM
[33] = second compound 1 µM, first compound 0.316 µM
[34] = second compound 1 µM, first compound 1 µM
[35] = second compound 1 µM, first compound 3.16 µM
[36] = second compound 1 µM, first compound 10 µM
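Note: spheroids exposed to compounds for 7 days before viability read.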

Compound: CC(C)NCC(C(=O)N1CCN(c2ncnc3c2C(C)CC3O)CC1)c1ccc(Cl)cc1 (centres undefined) + C=CC(=O)N1CCN(c2nc(OCC3CCCN3C)nc3c(F)c(-c4nc(N)cc(C)c4C(F)(F)F)c(Cl)cc23)C(C)C1
- pIC50 (second compound 0.00316 µM): 5.77
- pIC50 (second compound 0.01 µM): 5.49
- pIC50 (second compound 0.0316 µM): 5.57
- pIC50 (second compound 0.1 µM): 5.69
- pIC50 (second compound 0.316 µM): 5.60
- pIC50 (second compound 1 µM): 5.72
- viability, T/C [1]: 94.2%
- viability, T/C [2]: 87%
- viability, T/C [3]: 113%
- viability, T/C [4]: 59.2%
- viability, T/C [5]: 43.6%
- viability, T/C [6]: 34%
- viability, T/C [7]: 78.7%
- viability, T/C [8]: 100%
- viability, T/C [9]: 101%
- viability, T/C [10]: 79.4%
- viability, T/C [11]: 51.4%
- viability, T/C [12]: 33.6%
- viability, T/C [13]: 72.3%
- viability, T/C [14]: 110%
- viability, T/C [15]: 77.1%
- viability, T/C [16]: 87.1%
- viability, T/C [17]: 44.1%
- viability, T/C [18]: 35.2%
- viability, T/C [19]: 93.2%
- viability, T/C [20]: 85.8%
- viability, T/C [21]: 103%
- viability, T/C [22]: 63.4%
- viability, T/C [23]: 47.6%
- viability, T/C [24]: 35.8%
- viability, T/C [25]: 91.4%
- viability, T/C [26]: 96.3%
- viability, T/C [27]: 89.1%
- viability, T/C [28]: 62.8%
- viability, T/C [29]: 49.9%
- viability, T/C [30]: 29.5%
- viability, T/C [31]: 107%
- viability, T/C [32]: 97.7%
- viability, T/C [33]: 87.5%
- viability, T/C [34]: 63.7%
- viability, T/C [35]: 38.9%
- viability, T/C [36]: 25.2%

Compound: CC(Nc1ccc2c(c1)OCCn1cc(N3C(=O)OCC3C(F)F)nc1-2)C(N)=O (centres undefined) + C=CC(=O)N1CCN(c2nc(OCC3CCCN3C)nc3c(F)c(-c4nc(N)cc(C)c4C(F)(F)F)c(Cl)cc23)C(C)C1
- pIC50 (second compound 0.00316 µM): 6.29
- pIC50 (second compound 0.01 µM): 6.34
- pIC50 (second compound 0.0316 µM): 6.11
- pIC50 (second compound 0.1 µM): 5.99
- pIC50 (second compound 0.316 µM): 6.34
- pIC50 (second compound 1 µM): 6.46
- viability, T/C [1]: 109%
- viability, T/C [2]: 108%
- viability, T/C [3]: 58.9%
- viability, T/C [4]: 40.8%
- viability, T/C [5]: 34.7%
- viability, T/C [6]: 35%
- viability, T/C [7]: 102%
- viability, T/C [8]: 109%
- viability, T/C [9]: 57.3%
- viability, T/C [10]: 42%
- viability, T/C [11]: 36.7%
- viability, T/C [12]: 25.3%
- viability, T/C [13]: 90.2%
- viability, T/C [14]: 105%
- viability, T/C [15]: 70.3%
- viability, T/C [16]: 47.1%
- viability, T/C [17]: 37.4%
- viability, T/C [18]: 33.5%
- viability, T/C [19]: 82.8%
- viability, T/C [20]: 99.9%
- viability, T/C [21]: 72.8%
- viability, T/C [22]: 50.5%
- viability, T/C [23]: 42.8%
- viability, T/C [24]: 31.2%
- viability, T/C [25]: 105%
- viability, T/C [26]: 103%
- viability, T/C [27]: 55.3%
- viability, T/C [28]: 42.5%
- viability, T/C [29]: 36.1%
- viability, T/C [30]: 33.7%
- viability, T/C [31]: 93.3%
- viability, T/C [32]: 98.5%
- viability, T/C [33]: 51%
- viability, T/C [34]: 44.1%
- viability, T/C [35]: 41.5%
- viability, T/C [36]: 28.3%
